The structures appear in SMILES notation.

For this test, the species on record is Rattus norvegicus. The test can be described thus: In vitro effective dose for the growth hormone(GH) release in rat pituitary cells. It counts as functional. The note with it: Pituitary gland cell, read-out: ED50 (the source's name).
With `CC(C)(N)CC(=O)N[C@@H]1CCc2ccccc2N(Cc2ccc(-c3ccccc3-c3nnnn3CC(=O)O)cc2)C1=O`, the EC50 came out at 1000 nM.

On to `CC(C)(N)CC(=O)N[C@@H]1CCc2ccccc2N(Cc2ccc(-c3ccccc3-c3nnn(CC(=O)O)n3)cc2)C1=O`, for which the EC50 stood at 200 nM.

Turning to `Cn1nnnc1-c1ccccc1-c1ccc(CN2C(=O)[C@H](NC(=O)CC(C)(C)N)CCc3ccccc32)cc1`, the EC50 turned out to be 500 nM. For `CC(C)(N)CC(=O)N[C@@H]1CCc2ccccc2N(Cc2ccc(-c3ccccc3-c3nnn(Cc4ccccc4)n3)cc2)C1=O` the value was 1000 nM; for `CC(C)(N)CC(=O)N[C@@H]1CCc2ccccc2N(Cc2ccc(-c3ccccc3-c3nnnn3Cc3ccccc3)cc2)C1=O`, 700 nM.

For the molecule `CC(C)(N)CC(=O)N[C@@H]1CCc2ccccc2N(Cc2ccc(-c3ccccc3S(=O)(=O)NC(C)(C)C)cc2)C1=O`, the EC50 turned out to be 4000 nM. The result for `CC(C)(N)CC(=O)N[C@@H]1CCc2ccccc2N(Cc2ccc(-c3ccccc3S(=O)(=O)NC(=O)c3ccccc3)cc2)C1=O` reads 3000 nM; that for `CC(O)Cn1nnc(-c2ccccc2-c2ccc(CN3C(=O)[C@H](NC(=O)CC(C)(C)N)CCc4ccccc43)cc2)n1` (some centres not stated), 50 nM; that for `CC(C)(N)CC(=O)N[C@@H]1CCc2ccccc2N(Cc2ccc(-c3ccccc3-c3nn[nH]n3)cc2)C1=O`, 60 nM. For `CC(C)(N)CC(=O)N[C@@H]1CCc2ccccc2N(Cc2ccc(-c3ccccc3S(N)(=O)=O)cc2)C1=O` the value was 3000 nM; for `CC(C)(N)CC(=O)N[C@@H]1CCc2ccccc2N(Cc2ccc(-c3ccccc3C(N)=O)cc2)C1=O`, 80 nM.

With `CC(C)(N)CC(=O)N[C@@H]1CCc2ccccc2N(Cc2ccc(-c3ccccc3C(=O)O)cc2)C1=O`, the EC50 is 3000 nM. For `Cc1ccccc1-c1ccc(CN2C(=O)[C@H](NC(=O)CC(C)(C)N)CCc3ccccc32)cc1` the value was 1000 nM; for `CC(O)Cn1nnnc1-c1ccccc1-c1ccc(CN2C(=O)[C@H](NC(=O)CC(C)(C)N)CCc3ccccc32)cc1` (some centres not stated), 50 nM; for `Cn1nnc(-c2ccccc2-c2ccc(CN3C(=O)[C@H](NC(=O)CC(C)(C)N)CCc4ccccc43)cc2)n1`, 300 nM. For `CC(C)(N)CC(=O)N[C@@H]1CCc2ccccc2N(Cc2ccc(-c3ccccc3C#N)cc2)C1=O` (racemic) the value was 5000 nM. Take `COC(=O)c1ccccc1-c1ccc(CN2C(=O)[C@H](NC(=O)CC(C)(C)N)CCc3ccccc32)cc1` (racemic): the EC50 turned out to be 2000 nM.

For the origin of these results see ChEMBL document CHEMBL1150030, “Benzolactam growth hormone secretagogues: replacements for the 2-tetrazole moiety of L-692,429” (1994).
